According to US10899759B2, “Positive allosteric modulators of the muscarinic acetylcholine receptor M1” (Vanderbilt University, priority 2016, dated 2021):

Target: T1, human mAChR M1 (Homo sapiens, UniProt P11229)
T1 construct: host or cells: CHO-K1
T1 sequence (P11229 1-460): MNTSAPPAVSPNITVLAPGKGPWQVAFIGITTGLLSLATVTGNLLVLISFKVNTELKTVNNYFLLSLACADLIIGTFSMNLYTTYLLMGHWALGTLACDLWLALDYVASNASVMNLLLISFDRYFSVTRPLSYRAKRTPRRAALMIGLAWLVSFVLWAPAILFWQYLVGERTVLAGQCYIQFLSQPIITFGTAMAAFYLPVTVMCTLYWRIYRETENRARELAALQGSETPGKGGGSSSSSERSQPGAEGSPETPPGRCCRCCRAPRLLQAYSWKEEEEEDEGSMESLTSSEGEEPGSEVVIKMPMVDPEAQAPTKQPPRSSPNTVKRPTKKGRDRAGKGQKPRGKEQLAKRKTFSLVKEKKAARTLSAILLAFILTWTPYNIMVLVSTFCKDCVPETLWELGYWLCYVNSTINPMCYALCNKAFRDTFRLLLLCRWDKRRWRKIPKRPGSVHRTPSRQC
Experiment: mAChR M1 cell-based functional assay (calcium mobilization, Fluo-4, FDSS)
Details: CHO-K1 cells stably expressing hM1; for Emax: EC20 acetylcholine response, read-out: Human M1 Emax; for EC50: positive allosteric modulator activity as increase in the EC20 acetylcholine response
Outline: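 CHO-K1 cells stably expressing muscarinic receptor, loaded with Fluo-4; 11-point 1:3 compound series added and calcium flux read over 300 s at 1 Hz. Agonism from direct calcium rise, PAM activity as potentiation of EC20 acetylcholine, antagonism as decrease of EC80 acetylcholine; four-parameter logistic fits.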

| Emax | EC50 | Structure (SMILES) |
| --- | --- | --- |
| 58.6% | 940 nM | Cn1cc(-c2ccc(Cc3cc(C(=O)NC4CC(F)C4)nc4sccc34)cn2)cn1 (centres unmarked) [Compound 125, N-(3-fluorocyclobutyl)-4-[[6-(1-methylpyrazol-4-yl)-3-pyridyl]methyl]thieno[2,3-b]pyridine-6-carboxamide] |
| 70.7% | 410 nM | CCn1ccc2c(Cc3ccc(-n4cccn4)cc3)cc(C(=O)N[C@H]3CC[C@@H]3O)nc21 [Compound 13, 1-ethyl-N-[(1S,2S)-2-hydroxycyclobutyl]-4-[(4-pyrazol-1-ylphenyl)methyl]pyrrolo[2,3-b]pyridine-6-carboxamide] |
| 58.4% | 60 nM | Cn1ccc(-c2ccc(Cc3cc(C(=O)NC4CC(F)C4)nc4sccc34)cn2)n1 (centres unmarked) [Compound 110, N-(3-fluorocyclobutyl)-4-[[6-(1-methylpyrazol-3-yl)-3-pyridyl]methyl]thieno[2,3-b]pyridine-6-carboxamide] |
| 69.4% | 190 nM | O=C(NC1COC1)c1cc(Cc2ccc(-n3cccn3)cc2)c2ccsc2n1 [Compound 81, N-(oxetan-3-yl)-4-[(4-pyrazol-1-ylphenyl)methyl]thieno[2,3-b]pyridine-6-carboxamide] |
| 58.6% | 70 nM | COCCNC(=O)c1cc(Cc2ccc(-n3cccn3)cc2)c2ccsc2n1 [Compound 85, N-(2-methoxyethyl)-4-[(4-pyrazol-1-ylphenyl)methyl]thieno[2,3-b]pyridine-6-carboxamide] |
| 42.7% | 1080 nM | O=C(NCC1CCN1)c1cc(Cc2ccc(-n3cccn3)cc2)c2ccsc2n1 (centres unmarked) [Compound 84, N-(azetidin-2-ylmethyl)-4-[(4-pyrazol-1-ylphenyl)methyl]thieno[2,3-b]pyridine-6-carboxamide] |
| 75.4% | 140 nM | Cn1ccc2c(Cc3ccc(-c4cscn4)cc3)cc(C(=O)NC3CC4(COC4)C3)nc21 [Compound 23, 1-methyl-N-(2-oxaspiro[3.3]heptan-6-yl)-4-[(4-thiazol-4-ylphenyl)methyl]pyrrolo[2,3-b]pyridine-6-carboxamide] |
| 63.9% | 470 nM | Cc1nc(-c2ccc(Cc3cc(C(=O)N[C@H]4CCCC[C@@H]4O)nc4sccc34)cc2)co1 [Compound 129, N-[(1S,2S)-2-hydroxycyclohexyl]-4-[[4-(2-methyloxazol-4-yl)phenyl]methyl]thieno[2,3-b]pyridine-6-carboxamide] |
| 39.7% | 380 nM | Cn1ccc2c(Cc3ccc(-c4cscn4)cc3)cc(C(=O)N[C@@H]3CCCOC3)nc21 [Compound 32, 1-methyl-N-[(3R)-tetrahydropyran-3-yl]-4-[(4-thiazol-4-ylphenyl)methyl]pyrrolo[2,3-b]pyridine-6-carboxamide] |
| 60.5% | 70 nM | Cn1ccc(-c2ccc(Cc3cc(C(=O)NC4CCOC(C)(C)C4)nc4sccc34)cn2)n1 (centres unmarked) [Compound 103, N-(2,2-dimethyltetrahydropyran-4-yl)-4-[[6-(1-methylpyrazol-3-yl)-3-pyridyl]methyl]thieno[2,3-b]pyridine-6-carboxamide] |
